Source: PMC3019604 (ACS medicinal chemistry letters, 2010)

Tested on: BJ, HEK293, HEP G2, and Raji cell lines
Experiment: Cytotoxicity
Assay type: cell-based, human
Settings: four mammalian cell lines (BJ, HEK293, HEP G2, Raji)

For Cc1cc(NC(=O)Nc2cccc(OC(F)(F)F)c2)c2ccccc2n1 [4{13, 34}], the “mammalian cytotoxicity (in words)” value was “weak”.
